Reference: patent publication US10072011B2, “Substituted bridged urea analogs as sirtuin modulators” (GlaxoSmithKline Intellectual Property (No.2) Limited, priority 2014, dated 2018)

Target: T1, SIRT1 (Homo sapiens, UniProt Q96EB6)
T1 sequence (Q96EB6 1-747): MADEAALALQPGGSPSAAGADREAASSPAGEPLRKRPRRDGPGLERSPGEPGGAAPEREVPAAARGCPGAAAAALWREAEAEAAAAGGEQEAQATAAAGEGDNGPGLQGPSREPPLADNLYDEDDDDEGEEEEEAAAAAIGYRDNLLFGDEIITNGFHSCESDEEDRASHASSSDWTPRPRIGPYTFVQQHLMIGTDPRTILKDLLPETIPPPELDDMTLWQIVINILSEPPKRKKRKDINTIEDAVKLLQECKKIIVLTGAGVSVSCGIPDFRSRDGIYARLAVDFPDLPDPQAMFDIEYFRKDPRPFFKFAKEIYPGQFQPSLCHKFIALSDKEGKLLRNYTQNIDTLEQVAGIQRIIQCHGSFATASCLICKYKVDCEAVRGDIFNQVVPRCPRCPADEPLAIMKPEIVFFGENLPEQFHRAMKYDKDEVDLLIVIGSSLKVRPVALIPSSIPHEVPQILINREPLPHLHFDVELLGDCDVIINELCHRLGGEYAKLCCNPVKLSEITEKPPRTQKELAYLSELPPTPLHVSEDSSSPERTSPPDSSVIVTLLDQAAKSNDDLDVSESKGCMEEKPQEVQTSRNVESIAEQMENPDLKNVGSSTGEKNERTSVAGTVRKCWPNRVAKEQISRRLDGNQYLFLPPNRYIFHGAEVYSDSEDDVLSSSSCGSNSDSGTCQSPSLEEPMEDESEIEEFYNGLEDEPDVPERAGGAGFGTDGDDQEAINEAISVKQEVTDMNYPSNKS
Experiment: Trp mass spectrometry assay of SIRT1 activation (Ac-R-H-K-K(Ac)-W-NH2 peptide)
Type: biochemical
Details: Trp peptide 0.5 μM, 120 μM βNAD+, 10 nM SIRT1, 25 min at 25° C.; for Emax: 25 min, relative to control (100%), read-out: TRP MAX RESP (percent maximum fold activation)
Summary of the method: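 N-terminal His-tagged human SIRT1, expressed in BL21(DE3) and purified, was incubated 25 min with an acetylated Trp peptide and NAD plus test compound at varying concentrations, then quenched with formic acid. OAADPR or deacetylated peptide was quantified by mass spectrometry versus compound-free control; EC1.5 is the concentration giving 50% activity increase, with percent maximum activation.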

SMILES	Emax [%]	TRP Activity (EC1.5, concentration of test compound that results in 150% activation of SIRT1)
O=C(O)c1ccc(NC(=O)N2c3nc(C(=O)NCC(F)(F)F)ccc3N3CC[C@H]2C3)nc1 [Example 213, 6-((4S)-7-((2,2,2-trifluoroethyl)carbamoyl)-2,3,4,5-tetrahydro-1,4-methanopyrido[2,3-b][1,4]diazepine-5-carboxamido)nicotinic acid]	> 150	B (EC1.5 1-25 μM)
Cc1ccc(NC(=O)N2c3nc(C(=O)NC4CC4)ccc3N3CC[C@H]2C3)nc1 [Example 215, (4S)—N7-cyclopropyl-N5-(5-methylpyridin-2-yl)-3,4-dihydro-1,4-methanopyrido[2,3-b][1,4]diazepine-5,7(2H)-dicarboxamide]	> 150	B (EC1.5 1-25 μM)
Cn1cccc(NC(=O)N2c3nc(C(=O)NC4CC4)ccc3N3CC[C@H]2C3)c1=O [Example 216, (4S)—N7-cyclopropyl-N5-(1-methyl-2-oxo-1,2-dihydropyridin-3-yl)-3,4-dihydro-1,4-methanopyrido[2,3-b][1,4]diazepine-5,7(2H)-dicarboxamide]	> 150	B (EC1.5 1-25 μM)
C[C@@H](NC(=O)c1ccc2c(n1)N(C(=O)NCC(=O)N(C)C)[C@H]1CCN2C1)C(F)(F)F [Example 217, (4S)—N5-(2-(dimethylamino)-2-oxoethyl)-N7-((R)-1,1,1-trifluoropropan-2-yl)-3,4-dihydro-1,4-methanopyrido[2,3-b][1,4]diazepine-5,7(2H)-dicarboxamide]	> 150	B (EC1.5 1-25 μM)
O=C(NCCCO)c1ccc2c(n1)N(C(=O)Nc1ccccn1)[C@H]1CCN2C1 [Example 218, (4S)—N7-(3-hydroxypropyl)-N5-(pyridin-2-yl)-3,4-dihydro-1,4-methanopyrido[2,3-b][1,4]diazepine-5,7(2H)-dicarboxamide]	> 150	B (EC1.5 1-25 μM)
O=C(NCC1CC1)c1ccc2c(n1)N(C(=O)Nc1ccncn1)[C@H]1CCN2C1 [Example 219, (4S)—N7-(cyclopropylmethyl)-N5-(pyrimidin-4-yl)-3,4-dihydro-1,4-methanopyrido[2,3-b][1,4]diazepine-5,7(2H)-dicarboxamide]	> 150	B (EC1.5 1-25 μM)
Cn1ncc2c(NC(=O)N3c4nc(C(=O)NCC(F)(F)F)ccc4N4CC[C@H]3C4)cccc21 [Example 220, (4S)—N5-(1-methyl-1H-indazol-4-yl)-N7-(2,2,2-trifluoroethyl)-3,4-dihydro-1,4-methanopyrido[2,3-b][1,4]diazepine-5,7(2H)-dicarboxamide]	> 150	B (EC1.5 1-25 μM)
O=C(NC1CC1)c1ccc2c(n1)N(C(=O)Nc1cnccn1)[C@H]1CCN2C1 [Example 222, (4S)—N7-cyclopropyl-N5-(pyrazin-2-yl)-3,4-dihydro-1,4-methanopyrido[2,3-b][1,4]diazepine-5,7(2H)-dicarboxamide]	> 150	B (EC1.5 1-25 μM)
O=C(N[C@@H](CO)C(F)(F)F)c1ccc2c(n1)N(C(=O)Nc1cccnc1)[C@H]1CCN2C1 [Example 224, (4S)—N5-(pyridin-3-yl)-N7-((S)-1,1,1-trifluoro-3-hydroxypropan-2-yl)-3,4-dihydro-1,4-methanopyrido[2,3-b][1,4]diazepine-5,7(2H)-dicarboxamide]	> 150	B (EC1.5 1-25 μM)
C[C@@H](NC(=O)c1ccc2c(n1)N(C(=O)Nc1cc(C(=O)O)ccn1)[C@H]1CCN2C1)C(F)(F)F [Example 225, 2-((4S)-7-(((R)-1,1,1-trifluoropropan-2-yl)carbamoyl)-2,3,4,5-tetrahydro-1,4-methanopyrido[2,3-b][1,4]diazepine-5-carboxamido)isonicotinic acid]	> 150	B (EC1.5 1-25 μM)
O=C(NCc1cccnc1)c1ccc2c(n1)N(C(=O)Nc1cc(OC[C@H](O)CO)ccn1)[C@H]1CCN2C1 [Example 226, (4S)—N5-(4-((R)-2,3-dihydroxypropoxy)pyridin-2-yl)-N7-(pyridin-3-ylmethyl)-3,4-dihydro-1,4-methanopyrido[2,3-b][1,4]diazepine-5,7(2H)-dicarboxamide]	> 150	B (EC1.5 1-25 μM)
CN(C)CCOc1ccnc(NC(=O)N2c3nc(C(=O)NCC(F)(F)F)ccc3N3CC[C@H]2C3)c1 [Example 227, (4S)—N5-(4-(2-(dimethylamino)ethoxy)pyridin-2-yl)-N7-(2,2,2-trifluoroethyl)-3,4-dihydro-1,4-methanopyrido[2,3-b][1,4]diazepine-5,7(2H)-dicarboxamide]	> 150	B (EC1.5 1-25 μM)
CONC(=O)c1ccc2c(n1)N(C(=O)Nc1ccccn1)[C@H]1CCN2C1 [Example 228, (4S)—N7-methoxy-N5-(pyridin-2-yl)-3,4-dihydro-1,4-methanopyrido[2,3-b][1,4]diazepine-5,7(2H)-dicarboxamide]	> 150	B (EC1.5 1-25 μM)
O=C(NC1CC1)c1ccc2c(n1)N(C(=O)Nc1cccnn1)[C@H]1CCN2C1 [Example 229, (4S)—N7-cyclopropyl-N5-(pyridazin-3-yl)-3,4-dihydro-1,4-methanopyrido[2,3-b][1,4]diazepine-5,7(2H)-dicarboxamide]	> 150	B (EC1.5 1-25 μM)
O=C(NCC(F)(F)F)c1ccc2c(n1)N(C(=O)Nc1ccc3[nH]cnc3c1)[C@H]1CCN2C1 [Example 231, (4S)—N5-(1H-benzo[d]imidazol-5-yl)-N7-(2,2,2-trifluoroethyl)-3,4-dihydro-1,4-methanopyrido[2,3-b][1,4]diazepine-5,7(2H)-dicarboxamide]	> 150	B (EC1.5 1-25 μM)
O=C(NCC(F)(F)F)c1ccc2c(n1)N(C(=O)Nc1ccc3[nH]c(=O)[nH]c3c1)[C@H]1CCN2C1 [Example 232, (4S)—N5-(2-oxo-2,3-dihydro-1H-benzo[d]imidazol-5-yl)-N7-(2,2,2-trifluoroethyl)-3,4-dihydro-1,4-methanopyrido[2,3-b][1,4]diazepine-5,7(2H)-dicarboxamide]	< 150	C (EC1.5>25 μM)
C[C@@H](NC(=O)c1ccc2c(n1)N(C(=O)Nc1ccc(OC[C@@H](O)CO)nn1)[C@H]1CCN2C1)C(F)(F)F [Example 234, (4S)—N5-(6-((S)-2,3-dihydroxypropoxy)pyridazin-3-yl)-N7-((R)-1,1,1-trifluoropropan-2-yl)-3,4-dihydro-1,4-methanopyrido[2,3-b][1,4]diazepine-5,7(2H)-dicarboxamide]	> 150	A (EC1.5<1 μM)
O=C(NCc1cccc(F)c1)c1ccc2c(n1)N(C(=O)Nc1ccccn1)[C@H]1CCN2C1 [Example 236, (4S)—N7-(3-fluorobenzyl)-N5-(pyridin-2-yl)-3,4-dihydro-1,4-methanopyrido[2,3-b][1,4]diazepine-5,7(2H)-dicarboxamide]	> 150	A (EC1.5<1 μM)
C[C@@H](NC(=O)c1ccc2c(n1)N(C(=O)Nc1cnccn1)[C@H]1CCN2C1)C(F)(F)F [Example 237, (4S)—N5-(pyrazin-2-yl)-N7-((R)-1,1,1-trifluoropropan-2-yl)-3,4-dihydro-1,4-methanopyrido[2,3-b][1,4]diazepine-5,7(2H)-dicarboxamide]	> 150	A (EC1.5<1 μM)
Cc1cc(NC(=O)N2c3nc(C(=O)N[C@H](C)C(F)(F)F)ccc3N3CC[C@H]2C3)ncc1F [Example 238, (4S)—N5-(5-fluoro-4-methylpyridin-2-yl)-N7-((R)-1,1,1-trifluoropropan-2-yl)-3,4-dihydro-1,4-methanopyrido[2,3-b][1,4]diazepine-5,7(2H)-dicarboxamide]	> 150	A (EC1.5<1 μM)
